Source: publication PMC10501769 (eLife, 2023)

Molecular target: Rv0158 (Mycobacterium tuberculosis, UniProt O53641)
Assay: biochemical

Chain of Rv0158 (O53641 entry or part of it): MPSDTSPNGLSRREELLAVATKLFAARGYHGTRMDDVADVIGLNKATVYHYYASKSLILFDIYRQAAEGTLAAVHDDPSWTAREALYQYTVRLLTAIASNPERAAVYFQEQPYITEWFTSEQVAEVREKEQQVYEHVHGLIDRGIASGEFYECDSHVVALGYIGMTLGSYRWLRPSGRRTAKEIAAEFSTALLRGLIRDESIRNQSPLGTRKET

Row | Compound | Kd [nM]
1 | CCCCCCCCCCCC(=O)SCCNC(=O)CCNC(=O)[C@H](O)C(C)(C)COP(=O)(O)OP(=O)(O)OC[C@H]1O[C@@H](n2cnc3c(N)ncnc32)[C@H](O)[C@@H]1OP(=O)(O)O [C12-CoA] | 1100 ± 600
2 | CCCCCCCCCCCCCCCC(=O)SCCNC(=O)CCNC(=O)[C@H](O)C(C)(C)COP(=O)(O)OP(=O)(O)OC[C@H]1O[C@@H](n2cnc3c(N)ncnc32)[C@H](O)[C@@H]1OP(=O)(O)O [C16-CoA] | 1800 ± 500
3 | CCCCCCCCCCCCCCCCCC(=O)SCCNC(=O)CCNC(=O)[C@H](O)C(C)(C)COP(=O)(O)OP(=O)(O)OC[C@H]1O[C@@H](n2cnc3c(N)ncnc32)[C@H](O)[C@@H]1OP(=O)(O)O [C18-CoA] | 2800 ± 800
4 | CCCCCCCCCC(=O)SCCNC(=O)CCNC(=O)[C@H](O)C(C)(C)COP(=O)(O)OP(=O)(O)OC[C@H]1O[C@@H](n2cnc3c(N)ncnc32)[C@H](O)[C@@H]1OP(=O)(O)O [Decanoyl-CoA] | 6400 ± 1200
5 | CC(C)(COP(=O)(O)OP(=O)(O)OC[C@H]1O[C@@H](n2cnc3c(N)ncnc32)[C@H](O)[C@@H]1OP(=O)(O)O)[C@@H](O)C(=O)NCCC(=O)NCCSC(=O)CC(=O)O [Malonyl-CoA] | 2400 ± 1000
6 | CC(C(=O)O)C(=O)SCCNC(=O)CCNC(=O)[C@H](O)C(C)(C)COP(=O)(O)OP(=O)(O)OC[C@H]1O[C@@H](n2cnc3c(N)ncnc32)[C@H](O)[C@@H]1OP(=O)(O)O (stereo partly drawn) [Methylmalonyl-CoA] | 900 ± 300
